Some test systems named below: OVCAR-8; MDA-N; SNB-75; DU-145; EKVX; CCRF-CEM; HOP-62; BT-549; NCI-H522; HCC 2998; SF-539; A549; MDA-MB-231; LOX IMVI; NCI/ADR-RES; NCI-H226; NCI-H23; ACHN; NCI-H460; T47D.
What all share (assay): NCI-60 cell line screen, 48 h

From ChEMBL document CHEMBL1201862, “PubChem BioAssay data set” (2004) come the findings set out here.

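All cell lines were grown in 96-well plates and treated with compound for 48 hours. GI50: concentration for 50% inhibition of growth.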 The source made the active and inactive calls. Cut-off read from the data, not from the text of the source: active = GI50 up to about 1.1 µM and inactive = higher. Some results are limits rather than exact numbers.

For `O=C1C=C(c2c(O)ccc3ccccc23)c2ccccc2C1=O`, the GI50 with OVCAR-8 was 1.89 µM (inactive); in the test on MDA-N it was 2 µM (inactive); with SNB-75, 3.87 µM (inactive); in the test with DU-145, 10.9 µM (inactive); in the test with EKVX, 3.15 µM (inactive); in the test on CCRF-CEM, 1.86 µM (inactive). Moreover, the GI50 was 13 µM (inactive) in the test on HOP-62; 2.48 µM (inactive) in the test with BT-549; 1.61 µM (inactive) in the test on NCI-H522; 11.7 µM (inactive) in the test with HCC 2998; 2.09 µM (inactive) in the test with SF-539; 5.86 µM (inactive) in the test with A549. For the same compound, the GI50 in the test on MDA-MB-231 was 3.85 µM (inactive); in the test on LOX IMVI, 1.77 µM (inactive); with NCI/ADR-RES, 3.15 µM (inactive); in the test with NCI-H226 it was 9.77 µM (inactive); with NCI-H23 it was 2.15 µM (inactive); with ACHN, 3.44 µM (inactive). For the same compound, in the test with NCI-H460, the GI50 was 6.32 µM (inactive).
Take `O=C(Nc1ccc([As](=O)(O)O)cc1)Nc1cccc(Cl)c1Cl`: the GI50 in the test on OVCAR-8 was 46.2 µM (inactive); in the test on MDA-N it was > 100 µM (inactive); in the test with SNB-75 it was 21.7 µM (inactive); with DU-145 it was > 100 µM (inactive); in the test with EKVX it was 79.8 µM (inactive); with HOP-62, 70 µM (inactive). Further, the GI50 is > 100 µM (inactive) with BT-549; > 100 µM (inactive) in the test with NCI-H522; > 100 µM (inactive) with HCC 2998; > 100 µM (inactive) with SF-539; > 100 µM (inactive) with A549; 23.3 µM (inactive) in the test with MDA-MB-231. The GI50 in the test with LOX IMVI, in the test on NCI/ADR-RES, in the test on NCI-H226, in the test on NCI-H23, in the test with ACHN and with NCI-H460 was > 100 µM (inactive) throughout.
Take `CC(=O)Nc1ccc(Nc2cc(=O)n(C)c(=O)[nH]2)cc1`: the GI50 in the test on OVCAR-8, in the test on MDA-N, in the test on SNB-75, in the test with EKVX, with T47D and in the test on CCRF-CEM was > 100 µM (inactive) in each case. The GI50 with HOP-62, with BT-549, in the test with NCI-H522, in the test on HCC 2998, with SF-539 and with A549 was > 100 µM (inactive) throughout. The GI50 in the test on MDA-MB-231, with LOX IMVI, in the test on NCI/ADR-RES, in the test on NCI-H226, in the test with NCI-H23 and in the test with ACHN was > 100 µM (inactive) each time. In the test with NCI-H460, the GI50 was > 100 µM (inactive).
Turning to `COC(=O)[C@@H]1C[C@@H]2c3ccccc3N(S(=O)(=O)c3ccccc3)[C@@H]2N1C(=O)OC`, the GI50 in the test on OVCAR-8 is > 100 µM (inactive); in the test on MDA-N, > 100 µM (inactive); in the test with SNB-75, > 100 µM (inactive); in the test on DU-145 it was 35.2 µM (inactive); in the test with EKVX, > 100 µM (inactive); with CCRF-CEM, > 100 µM (inactive). The GI50 in the test with HOP-62, in the test with BT-549, in the test with NCI-H522, in the test on HCC 2998, with SF-539 and in the test with A549 was > 100 µM (inactive) throughout. Also, the GI50 in the test on MDA-MB-231 was > 100 µM (inactive); in the test with LOX IMVI, > 100 µM (inactive); with NCI/ADR-RES it was > 100 µM (inactive); in the test on NCI-H226, > 100 µM (inactive); in the test with NCI-H23 it was 37.1 µM (inactive); with ACHN, > 100 µM (inactive). The GI50 in the test on NCI-H460 is > 100 µM (inactive).
For the compound `CC(=O)N1C(Nc2ccccc2)CCN1c1ccccc1` (centres undefined), the GI50 in the test on OVCAR-8, in the test with SNB-75, with DU-145, in the test with EKVX, in the test on T47D and in the test on CCRF-CEM was > 10 µM (inactive) in each case. Further, the GI50 is > 10 µM (inactive) with HOP-62; > 10 µM (inactive) in the test on BT-549; > 10 µM (inactive) with NCI-H522; > 10 µM (inactive) in the test on HCC 2998; 5.19 µM (inactive) in the test with SF-539; > 10 µM (inactive) in the test on A549. Besides, the GI50 was > 10 µM (inactive) with MDA-MB-231; > 10 µM (inactive) in the test on LOX IMVI; 9.89 µM (inactive) with NCI/ADR-RES; > 10 µM (inactive) in the test on NCI-H226; > 10 µM (inactive) in the test on NCI-H23; 4.22 µM (inactive) in the test with ACHN. Moreover, the GI50 in the test on NCI-H460 is > 10 µM (inactive).
Regarding `O=C(O)c1ccc2c(c1)Cc1cc([N+](=O)[O-])ccc1-2`, the GI50 with OVCAR-8 was 59.7 µM (inactive); in the test with SNB-75, > 100 µM (inactive); in the test on DU-145 it was > 100 µM (inactive); with EKVX, > 100 µM (inactive); in the test with T47D it was > 100 µM (inactive); with CCRF-CEM, 21.6 µM (inactive). For the same compound, the GI50 in the test on HOP-62, with BT-549, with NCI-H522, in the test with HCC 2998, in the test on SF-539 and in the test with A549 was > 100 µM (inactive) each time. Moreover, the GI50 in the test on MDA-MB-231 is > 100 µM (inactive); with LOX IMVI, > 100 µM (inactive); with NCI/ADR-RES it was > 100 µM (inactive); in the test with NCI-H226, 52.1 µM (inactive); with NCI-H23 it was > 100 µM (inactive); with ACHN, > 100 µM (inactive). In the test with NCI-H460, the GI50 was > 100 µM (inactive).
As to `CCc1n[nH]c(=O)n1NC(=O)c1ccccc1C(=O)O`, the GI50 in the test with OVCAR-8, with MDA-N, in the test with SNB-75, in the test on DU-145, in the test with EKVX and with CCRF-CEM was > 100 µM (inactive) in each case. Also, the GI50 in the test with HOP-62, in the test with BT-549, with NCI-H522, with HCC 2998, with SF-539 and in the test with A549 was > 100 µM (inactive) each time. Besides, the GI50 with MDA-MB-231, in the test with LOX IMVI, with NCI/ADR-RES, with NCI-H23 and with ACHN was > 100 µM (inactive) each time.
`CC(C)(C)OC/C=C(/CO)[C@@H]1C=C[C@H](O)C1`: the GI50 in the test with MDA-N, with SNB-75, in the test on EKVX, with T47D, in the test with CCRF-CEM and in the test with HOP-62 was > 100 µM (inactive) in each case. For the same compound, the GI50 in the test on BT-549, in the test on HCC 2998, in the test with SF-539, in the test with A549, with MDA-MB-231 and with NCI/ADR-RES was > 100 µM (inactive) throughout. Besides, the GI50 in the test on NCI-H226, in the test on NCI-H23, in the test with ACHN and with NCI-H460 was > 100 µM (inactive) each time.
`CC1(N2CCOCC2)CC2C(=[N+]1[O-])CCC/C2=N/O` (centres undefined): the GI50 is > 100 µM (inactive) in the test on OVCAR-8; > 100 µM (inactive) in the test with MDA-N; 0.334 µM (active) with SNB-75; > 100 µM (inactive) in the test with EKVX; > 100 µM (inactive) in the test with T47D; > 100 µM (inactive) with CCRF-CEM. For the same compound, the GI50 in the test on HOP-62, in the test on BT-549, in the test on NCI-H522, in the test on HCC 2998, with SF-539 and in the test with A549 was > 100 µM (inactive) each time. Also, the GI50 with MDA-MB-231, in the test on LOX IMVI, in the test on NCI/ADR-RES, in the test with NCI-H226, with NCI-H23 and in the test with ACHN was > 100 µM (inactive) each time. The GI50 in the test with NCI-H460 is > 100 µM (inactive).
With `O=C(OC1C#CCSCC#C/C=C\1)c1cnc2ccccc2n1` (centres undefined), the GI50 in the test with OVCAR-8 is 0.409 µM (active); with MDA-N, > 100 µM (inactive); in the test on SNB-75, > 100 µM (inactive); in the test with DU-145, > 100 µM (inactive); in the test on EKVX, > 100 µM (inactive); in the test on CCRF-CEM, 53.6 µM (inactive). Also, the GI50 in the test on HOP-62, with BT-549, in the test with NCI-H522, with HCC 2998, in the test on SF-539 and with MDA-MB-231 was > 100 µM (inactive) throughout. Also, the GI50 in the test with LOX IMVI was > 100 µM (inactive); with NCI/ADR-RES it was 0.805 µM (active); in the test with NCI-H226, 79.4 µM (inactive); with NCI-H23, > 100 µM (inactive); with ACHN it was > 100 µM (inactive); with NCI-H460, 14.1 µM (inactive).
`O=C1Cc2c([nH]c3ccc(Br)cc23)-c2cc(Br)ccc2N1`: the GI50 with OVCAR-8, in the test on DU-145, in the test with EKVX, in the test on T47D, in the test with CCRF-CEM and in the test with BT-549 was > 100 µM (inactive) in each case. The GI50 in the test with HCC 2998, with SF-539, in the test with A549, in the test with MDA-MB-231, in the test with LOX IMVI and in the test on NCI/ADR-RES was > 100 µM (inactive) in each case. Also, the GI50 in the test on NCI-H226, in the test with NCI-H23, in the test with ACHN and in the test on NCI-H460 was > 100 µM (inactive) throughout.
